Data on 1 substance can be found in paper PMC12340070, “A novel modulator of IL-6R prevents inflammation-induced preterm birth and improves newborn outcome” (EMBO Molecular Medicine, 2025).

Data set [1] concerns STAT3. In words: STAT3 phosphorylation in HEK-Blue IL-6 cells (immunoblot). In kind it is cell-based, human. To be noted: for p-STAT3 phospho/total: 10 min, densitometry. How it is done: (§1) For RT-qPCR experiments, cells were plated in 6-well plates at 70% of confluence and starved overnight. Cells were treated respectively with HSJ633, HSJ630, HSJ631, HSJ634, HSJ635, HSJ639 (1 × 10^−6 M), or TCZ (3.44 μM, based on validated doses (Sahraoui et al, [2014])) for TNF-α expression. For hIL-1, hIL-6, and hTNF-α expression, cells were treated with HSJ633 using concentrations ranging from 10^−11 to 10^−4 M, allowing for equilibrium over 15 min. Cells were then treated with […] of IL-6 for 6 h for both experiments. Cell lysis was performed by adding RIBOzol. Samples were stored at −20 °C until analysis by quantitative PCR. To determine the degree of phosphorylation of different proteins (STAT3, ERK, AKT, and p38), HEK-Blue IL-6 cells were treated with HSJ633 (10^−6 M), TCZ (3.44 uM) or vehicle for 30 min in DMEM only. […] For p38 activation, 25 min of stimulation with IL-6 was required. The wells were charged with radioimmunoprecipitation assay buffer (RIPA) at a concentration of 1×, cOmplete EDTA-free Protease Inhibitor Cocktail final concentration 1×, and phenylmethanesulfonyl fluoride (PMSF) 1 mM. Samples were shaken for 30 min followed by centrifugation at 12,000 RPM at 4 °C for 20 min to harvest the proteins. Proteins were stored at −80 °C until analysis by immunoblotting.
(§2) A total of 15 μL of protein from HEK-Blue IL-6 cells combined with Laemmli-SDS 1× (reducing) was loaded onto SDS-PAGE gel and electro-transferred onto polyvinylidene difluoride membranes. After blocking with BSA 5%-TBST for 1 h, membranes were incubated with the following antibodies (Ab): either mouse anti-phospho-STAT3 (1:1000), rabbit anti-phospho-AKT (1:1000), rabbit anti-phospho-ERK1/2 (1:1000), rabbit anti-phospho-p38 (1:1000), rabbit anti-cytochrome c oxidase 4 (1:5000) or mouse anti-GAPDH (1:20,000, Proteintech). After washing, membranes were incubated for 1 h with secondary antibodies conjugated to HRP (1:3000 Anti-rabbit IgG, HRP-linked Antibody and 1:5000 Goat Anti-Mouse IgG (H + L)-HRP Conjugate). Samples were normalized by membrane stripping (15 g glycine, 1 g SDS, 10 mL Tween-20 at pH 2,2) and incubation with Ab (mouse anti-STAT3 (1:1000), rabbit anti-AKT (1:1000), rabbit anti-ERK1/2 (1:1000) or rabbit anti-p38 (1:1000)). After washing, membranes were incubated for 1 h with secondary antibodies conjugated to HRP (1:3000 Anti-rabbit IgG, HRP-linked antibody and 1:5000 goat anti-mouse IgG (H + L)-HRP Conjugate). Western Lightning Plus ECL or Clarity MAX Western ECL Substrate were used for protein detection using the ChemiDoc MP, and densitometric analysis were completed with ImageLab from Bio-Rad Laboratories.

For data set [2], the system named is AKT. The experiment in a line: AKT phosphorylation in HEK-Blue IL-6 cells (immunoblot). In kind it is cell-based, human. To be noted: for p-AKT phospho/total: 10 min, densitometry. As to the method: as §1, §2
Data set [3] concerns ERK1/2. The experiment in a line: ERK1/2 phosphorylation in HEK-Blue IL-6 cells (immunoblot). In kind it is cell-based, human. The conditions noted are these: for p-ERK 1/2 phospho/total: 10 min, densitometry. As to the method:
as §1, §2

For data set [4], the system named is p38. In words: p38 phosphorylation in HEK-Blue IL-6 cells (immunoblot). In kind it is cell-based, human. To be noted: for p-p38 phospho/total: densitometry. As to the method:
For RT-qPCR experiments, cells were plated in 6-well plates at 70% of confluence and starved overnight. Cells were treated respectively with HSJ633, HSJ630, HSJ631, HSJ634, HSJ635, HSJ639 (1 × 10^−6 M), or TCZ (3.44 μM, based on validated doses (Sahraoui et al, [2014])) for TNF-α expression. For hIL-1, hIL-6, and hTNF-α expression, cells were treated with HSJ633 using concentrations ranging from 10^−11 to 10^−4 M, allowing for equilibrium over 15 min. Cells were then treated with […] of IL-6 for 6 h for both experiments. Cell lysis was performed by adding RIBOzol. Samples were stored at −20 °C until analysis by quantitative PCR. To determine the degree of phosphorylation of different proteins (STAT3, ERK, AKT, and p38), HEK-Blue IL-6 cells were treated with HSJ633 (10^−6 M), TCZ (3.44 uM) or vehicle for 30 min in DMEM only. Human IL-6 (3.86 nM) was added to the medium for 15 min to stimulate IL-6R pathways leading to STAT3, ERK, and AKT activation. For p38 activation, 25 min of stimulation with IL-6 was required. The wells were charged with radioimmunoprecipitation assay buffer (RIPA) at a concentration of 1×, cOmplete EDTA-free Protease Inhibitor Cocktail final concentration 1×, and phenylmethanesulfonyl fluoride (PMSF) 1 mM. Samples were shaken for 30 min followed by centrifugation at 12,000 RPM at 4 °C for 20 min to harvest the proteins. Proteins were stored at −80 °C until analysis by immunoblotting.
as §2
Background: In western blotting, separated proteins are transferred to a membrane and probed.

Data set [5] concerns preterm birth in pregnant women. The conditions noted are these: pregnancies prospectively reported following exposure; ref Hoeltzenbein et al, 2016; cited from earlier work. From the text: Complete or partial inhibition of the IL-6 receptor by HSJ633 reduces maternal inflammation and thus prematurity levels.
Data set [6] has as its system murine IL-6R (Ba/F3-gp130-mIL-6R). To be noted: ref Lokau et al, 2020; cited from earlier work. From the text:
HSJ633 has been formulated based on the human IL-6 receptor. […] Both Tocilizumab and MR-16 act as orthosteric antagonists, competitively interfering with IL-6 for receptor occupancy (Lokau et al, [2020]). The ...

Setting [7] is: HEK-Blue IL-6, IL-6 3.86 nM, HSJ633 1 μM, TCZ 3.44 μM.

In the case of “Tocilizumab: IL-6R orthosteric antagonist monoclonal antibody”, the p-STAT3 phospho/total came to 0.57 in data set [1] (mean (Moyenne)), 0.67 in data set [1] (replicate 2) and 0.46 in data set [1] (replicate 3). The “STAT3 phosphorylation, result in words” value in data set [1] (setting [7]) is “blocked”. The results for the p-AKT phospho/total in data set [2] (average), in data set [2] (replicate 2) and in data set [2] (replicate 3) were 0.06, 0.0565 and 0.06, respectively. The “AKT phosphorylation, result in words” value in data set [2] (setting [7]) is “blocked”. In addition, the “p-ERK 1/2 phospho/total” value in data set [3] (average) turned out to be 0.11; in data set [3] (replicate 2 (633-2 marked Outliers)), 0.12; in data set [3] (replicate 3) it was 0.09. Also, in data set [3] (setting [7]), the “ERK1/2 phosphorylation, result in words” value was “blocked”. Further, the “p38 phosphorylation, result in words” value in data set [4] (setting [7]) was “blocked”. In addition, the p-p38 phospho/total is 0.66 in data set [4] (average), 0.67 in data set [4] (replicate 1) and 0.65 in data set [4] (replicate 2). Besides, in data set [5], the “increase rate in preterm birth vs general population” value is 31.1%. Moreover, in data set [6], the “proliferation and activation of STAT3 in Ba/F3-gp130-mIL-6R” value is “no hindrance on the proliferation and activation of STAT3”.
